Results reported in ChEMBL document CHEMBL1138883, “Synthesis and biological evaluation of new asymmetrical bisintercalators as potential antitumor drugs” (2006).
Activity calls are given as the source filed them. The calls are words filed in the database; no cut-off is given here.

Legend:
[1] = tested on: PC-3; assay: Cytotoxicity against PC3 cells by SRB assay after 48 hrs; assay type: functional; settings: Homo sapiens, PC-3, 48 h
[2] = Ratio of K(app) for [A-T] to [G-C]
[3] = tested on: PC-3; assay: Induction of apoptosis in PC3 cells measured as percentage of living cells by biparametric PI/Annexin V assay at 1.6 uM after 24 hrs; assay type: functional, Homo sapiens
[4] = tested on: PC-3; assay: Induction of apoptosis in PC3 measured as percentage of necrotic cells by biparametric PI/Annexin V assay at 1.6 uM after 24 hrs; assay type: functional, Homo sapiens
[5] = tested on: PC-3; assay: Induction of apoptosis in PC3 measured as percentage of early apoptotic cells by biparametric PI/Annexin V assay at 1.6 uM after 24 hrs; assay type: functional, Homo sapiens
[6] = tested on: PC-3; assay: Induction of apoptosis in PC3 measured as percentage of late apoptotic cells by biparametric PI/Annexin V assay at 1.6 uM after 48 hrs; assay type: functional, Homo sapiens
[7] = tested on: PC-3; assay: Induction of apoptosis in PC3 measured as percentage of early apoptotic cells by biparametric PI/Annexin V assay at 1.6 uM after 48 hrs; assay type: functional, Homo sapiens
[8] = tested on: PC-3; assay: Induction of apoptosis in PC3 measured as percentage of necrotic cells by biparametric PI/Annexin V assay at 1.6 uM after 8 hrs; assay type: functional, Homo sapiens
[9] = tested on: PC-3; assay: Induction of apoptosis in PC3 cells measured as percentage of living cells by biparametric PI/Annexin V assay at 1.6 uM after 8 hrs; assay type: functional, Homo sapiens
[10] = tested on: PC-3; assay: Induction of apoptosis in PC3 cells measured as percentage of living cells by biparametric PI/Annexin V assay at 1.6 uM after 4 hrs; assay type: functional, Homo sapiens
[11] = tested on: PC-3; assay: Reduction in PC3 cell viability after 48 hrs by FDA flow cytometer assay; assay type: functional, cell-based; settings: Homo sapiens
[12] = tested on: PC-3; assay: Induction of apoptosis in PC3 measured as percentage of late apoptotic cells by biparametric PI/Annexin V assay at 1.6 uM after 8 hrs; assay type: functional, Homo sapiens
[13] = tested on: PC-3; assay: Induction of apoptosis in PC3 measured as percentage of early apoptotic cells by biparametric PI/Annexin V assay at 1.6 uM after 8 hrs; assay type: functional, Homo sapiens
[14] = tested on: PC-3; assay: Induction of apoptosis in PC3 measured as percentage of necrotic cells by biparametric PI/Annexin V assay at 1.6 uM after 48 hrs; assay type: functional, Homo sapiens
[15] = tested on: PC-3; assay: Induction of apoptosis in PC3 measured as percentage of necrotic cells by biparametric PI/Annexin V assay at 1.6 uM after 4 hrs; assay type: functional, Homo sapiens
[16] = tested on: PC-3; assay: Induction of apoptosis in PC3 measured as percentage of early apoptotic cells by biparametric PI/Annexin V assay at 1.6 uM after 4 hrs; assay type: functional, Homo sapiens
[17] = tested on: PC-3; assay: Induction of apoptosis in PC3 measured as percentage of late apoptotic cells by biparametric PI/Annexin V assay at 1.6 uM after 24 hrs; assay type: functional, Homo sapiens
[18] = tested on: PC-3; assay: Induction of apoptosis in PC3 measured as percentage of late apoptotic cells by biparametric PI/Annexin V assay at 1.6 uM after 4 hrs; assay type: functional, Homo sapiens
[19] = tested on: PC-3; assay: Induction of necrosis in PC3 cells by DNA fragmentation assay; assay type: functional, cell-based; settings: Homo sapiens
[20] = tested on: PC-3; assay: Induction of apoptosis in PC3 cells measured as percentage of living cells by biparametric PI/Annexin V assay at 1.6 uM after 48 hrs; assay type: functional, Homo sapiens
[21] = tested on: PC-3; assay: Induction of apoptosis in PC3 measured as percentage of necrotic cells by biparametric PI/Annexin V assay at 2.6 uM after 8 hrs; assay type: functional, Homo sapiens
[22] = tested on: PC-3; assay: Induction of early apoptosis in PC3 cells by DNA fragmentation assay; assay type: functional, cell-based; settings: Homo sapiens
[23] = tested on: PC-3; assay: Induction of apoptosis in PC3 measured as percentage of necrotic cells by biparametric PI/Annexin V assay at 2.6 uM after 48 hrs; assay type: functional, Homo sapiens
[24] = tested on: PC-3; assay: Induction of apoptosis in PC3 measured as percentage of late apoptotic cells by biparametric PI/Annexin V assay at 2.6 uM after 8 hrs; assay type: functional, Homo sapiens
[25] = tested on: PC-3; assay: Induction of apoptosis in PC3 measured as percentage of early apoptotic cells by biparametric PI/Annexin V assay at 2.6 uM after 48 hrs; assay type: functional, Homo sapiens
[26] = tested on: PC-3; assay: Induction of apoptosis in PC3 measured as percentage of early apoptotic cells by biparametric PI/Annexin V assay at 2.6 uM after 8 hrs; assay type: functional, Homo sapiens
[27] = tested on: PC-3; assay: Induction of apoptosis in PC3 measured as percentage of late apoptotic cells by biparametric PI/Annexin V assay at 2.6 uM after 24 hrs; assay type: functional, Homo sapiens
[28] = tested on: PC-3; assay: Induction of apoptosis in PC3 measured as percentage of necrotic cells by biparametric PI/Annexin V assay at 2.6 uM after 24 hrs; assay type: functional, Homo sapiens
[29] = tested on: PC-3; assay: Induction of apoptosis in PC3 measured as percentage of late apoptotic cells by biparametric PI/Annexin V assay at 2.6 uM after 48 hrs; assay type: functional, Homo sapiens
[30] = tested on: PC-3; assay: Induction of apoptosis in PC3 measured as percentage of early apoptotic cells by biparametric PI/Annexin V assay at 2.6 uM after 24 hrs; assay type: functional, Homo sapiens
[31] = tested on: PC-3; assay: Induction of apoptosis in PC3 measured as percentage of early apoptotic cells by biparametric PI/Annexin V assay at 2.6 uM after 4 hrs; assay type: functional, Homo sapiens
[32] = tested on: PC-3; assay: Induction of apoptosis in PC3 cells measured as percentage of living cells by biparametric PI/Annexin V assay at 2.6 uM after 8 hrs; assay type: functional, Homo sapiens
[33] = tested on: PC-3; assay: Induction of apoptosis in PC3 measured as percentage of necrotic cells by biparametric PI/Annexin V assay at 2.6 uM after 4 hrs; assay type: functional, Homo sapiens
[34] = tested on: PC-3; assay: Induction of apoptosis in PC3 cells measured as percentage of living cells by biparametric PI/Annexin V assay at 2.6 uM after 48 hrs; assay type: functional, Homo sapiens
[35] = tested on: PC-3; assay: Induction of apoptosis in PC3 cells measured as percentage of living cells by biparametric PI/Annexin V assay at 2.6 uM after 4 hrs; assay type: functional, Homo sapiens
[36] = tested on: PC-3; assay: Induction of apoptosis in PC3 measured as percentage of late apoptotic cells by biparametric PI/Annexin V assay at 2.6 uM after 4 hrs; assay type: functional, Homo sapiens
[37] = tested on: PC-3; assay: Induction of apoptosis in PC3 cells measured as percentage of living cells by biparametric PI/Annexin V assay at 2.6 uM after 24 hrs; assay type: functional, Homo sapiens

Structure (SMILES) | GI50 [1] | LC50 (concentration for 50% net cell kill) [1] | TGI [1] | Selectivity ratio [2] | further results
CN(C)CCNC(=O)c1ccc(NCCCN(C)CCCN2C(=O)c3cccc4cc([N+](=O)[O-])cc(c34)C2=O)c2c(O)c3ccccc3nc12 | 600 nM | 4400 nM | 1000 nM | 7.1 | –
CN(C)CCNC(=O)c1ccc(NCCCN(C)CCCN2C(=O)c3cccc4cccc(c34)C2=O)c2c(O)c3cc([N+](=O)[O-])ccc3nc12 | 89 nM | 3000 nM | 630 nM | 1.4 | –
COc1ccc2c(c1)c(=O)c1c(NCCCN(C)CCCN3C(=O)c4cccc5cccc(c45)C3=O)ccc3c(=O)n(CCN(C)C)c(=O)n2c31 | 51 nM | 4000 nM | 850 nM | 4.5 | –
CN(C)CCCn1c(=O)c2ccc(NCCCN(C)CCCN3C(=O)c4cccc5cc([N+](=O)[O-])cc(c45)C3=O)c3c(=O)c4ccccc4n(c1=O)c23 | 1700 nM | 6600 nM | 3200 nM | 20 | –
CN(C)CCNC(=O)c1ccc(NCCNCCNCCN2C(=O)c3cccc4cccc(c34)C2=O)c2c(O)c3cc([N+](=O)[O-])ccc3nc12 | 62 nM | 2500 nM | 390 nM | – | –
CN(C)CCNC(=O)c1ccc(NCCCN(C)CCCNc2ccc3c(=O)n(CCN(C)C)c(=O)n4c5ccccc5c(=O)c2c34)c2c(O)c3ccccc3nc12 | 100 nM | 8300 nM | 1000 nM | 1.3 | –
CN(C)CCNC(=O)c1ccc(NCCCN(C)CCCN2C(=O)c3cccc4cccc(c34)C2=O)c2c(O)c3ccccc3nc12 | 520 nM | 5400 nM | 2000 nM | 4.1 | –
CN(C)CCNC(=O)c1ccc(NCCCN(C)CCCNc2ccc3c(=O)n(CCN(C)C)c(=O)n4c5ccccc5c(=O)c2c34)c2c(O)c3cc([N+](=O)[O-])ccc3nc12.Cl | 7 nM | 1600 nM | 160 nM | 1.9 | Activity [3]: 37.5%; Activity [4]: 44%; Activity [5]: 2.9%; Activity [6]: 35.2%; Activity [7]: 4.1%; Activity [8]: 37.9%; Activity [9]: 53%; Activity [10]: 66.5%; Activity [11]: Time-dependent effect; Activity [12]: 5.5%; Activity [13]: 3.6%; Activity [14]: 55.7%; Activity [15]: 28.6%; Activity [16]: 1.9%; Activity [17]: 15.6%; Activity [18]: 3%; Activity [19]: Active; Activity [20]: 5%
COc1ccc2c(c1)c(=O)c1c(NCCCN(C)CCCN3C(=O)c4cccc5cc([N+](=O)[O-])cc(c45)C3=O)ccc3c(=O)n(CCN(C)C)c(=O)n2c31 | 83 nM | 9300 nM | 500 nM | 4.8 | –
CN(C)CCN1C(=O)c2cccc3cc([N+](=O)[O-])cc(c23)C1=O [MITONAFIDE] | 150 nM | – | 3800 nM | – | –
CN(C)CCCNC(=O)c1ccc(NCCCN(C)CCCNc2ccc3c(=O)n(CCCN(C)C)c(=O)n4c5ccccc5c(=O)c2c34)c2c(O)c3ccccc3nc12 | 250 nM | 2500 nM | 600 nM | 14 | –
CN(C)CCNC(=O)c1ccc(NCCCN(C)CCCN2C(=O)c3cccc4cc([N+](=O)[O-])cc(c34)C2=O)c2c(O)c3cc([N+](=O)[O-])ccc3nc12 | 8 nM | 4100 nM | 1300 nM | 2.1 | –
COc1cc2c(=O)c3c(NCCCN(C)CCCN4C(=O)c5cccc6cc([N+](=O)[O-])cc(c56)C4=O)ccc4c(=O)n(CCN(C)C)c(=O)n(c2cc1OC)c43 | 17 nM | 4000 nM | 340 nM | 1.6 | –
CN(C)CCn1c(=O)c2ccc(NCCCN(C)CCCN3C(=O)c4cccc5cccc(c45)C3=O)c3c(=O)c4ccccc4n(c1=O)c23 | – | 2600 nM | – | 2.4 | –
CN(C)CCCNC(=O)c1ccc(NCCCN(C)CCCN2C(=O)c3cccc4cccc(c34)C2=O)c2c(O)c3ccccc3nc12 | 600 nM | 4100 nM | 990 nM | 6.9 | –
CN(C)CCn1c(=O)c2ccc(NCCCN(C)CCCN3C(=O)c4cccc5cc([N+](=O)[O-])cc(c45)C3=O)c3c(=O)c4ccccc4n(c1=O)c23.Cl | – | 2600 nM | – | 4.3 | Activity [21]: 26.9%; Activity [22]: Active; Activity [23]: 87.3%; Activity [24]: 7.8%; Activity [25]: 4%; Activity [26]: 16.3%; Activity [27]: 6.3%; Activity [28]: 28.6%; Activity [11]: Time-dependent effect; Activity [29]: 7.5%; Activity [30]: 33.6%; Activity [31]: 12.5%; Activity [32]: 49%; Activity [33]: 16.3%; Activity [34]: 1.2%; Activity [35]: 67.7%; Activity [36]: 3.5%; Activity [37]: 31.5%
CN(C)CCCn1c(=O)c2ccc(NCCCN(C)CCCN3C(=O)c4cccc5cccc(c45)C3=O)c3c(=O)c4ccccc4n(c1=O)c23 | 420 nM | 3800 nM | 830 nM | 3.4 | –
CN(C)CCCNC(=O)c1ccc(NCCCN(C)CCCN2C(=O)c3cccc4cc([N+](=O)[O-])cc(c34)C2=O)c2c(O)c3ccccc3nc12 | 50 nM | 3600 nM | 90 nM | 6.1 | –
COc1cc2nc3c(C(=O)NCCN(C)C)ccc(NCCCN(C)CCCN4C(=O)c5cccc6cccc(c56)C4=O)c3c(O)c2cc1OC | 150 nM | > 50000 nM | 3800 nM | 1.3 | –
